Tests used:
Type in all cases: cell-based
[1] = system: Escherichia coli; assay: Primary bacteria screening; design: key: score: 3 = complete inhibition of growth, 2 = growth partially controlled; settings: test compound concentration 500 μMol in tryptose broth agar, 27° C.
Description: (§1) The stock solutions with the test compounds were pipetted into multiwell plates and mixed with warm tryptose broth agar (2.6%) in order to reach a test compound concentration of 500 μMol. The medium was allowed to cool and subsequently inoculated with the bacteria. Wells were placed in an incubator at 27° C. and a relative humidity of 70%. After sufficient growth of the untreated cultures, the test was evaluated.
(§2) 3: complete inhibition of bacterial growth
(§3) 2: bacterial growth partially controlled

[2] = system: Pseudomonas aeruginosa; assay: Primary bacteria screening; design: key: score: 3 = complete inhibition of growth, 2 = growth partially controlled; settings: test compound concentration 500 μMol in tryptose broth agar, 27° C.
Description: as §1, §2, §3

[3] = system: Providencia rettgeri; assay: Poison plate assay, combinations with BAC; settings: BAC alone 80 μmol
Description: Biocidal activity against bacterial/yeast growth was determined with the poison plate assay. To obtain the required concentrations of the test compound, calculated amounts of stock solutions (DMSO) were pipetted into multi-well plates. Tryptose agar (except for Rhodotorula: PDA) was added aseptically and uniform distribution was obtained by shaking. Each plate was inoculated with a bacterial/yeast suspension. After incubation at 27° C. and 70% relative humidity, for a period long enough to allow complete growth of controls, percentage activity as compared to the control was scored.
Possible synergy was investigated using Limpel's formula (Richter, D. L., Pestic. Sci. 1987, 19: 309-315): [formula]
where EC is the expected additive response, or calculated activity, X is the observed percentage control when compound A is applied alone and Y is the observed percentage control when compound B is applied alone. Synergy was considered to occur when the observed effect, or measured activity, of a combination of both compounds was greater than the corresponding EC value.
The table C.7 to C.8 below enumerate the measured and calculated activities of BAC and compounds 20, 42 and 40 when tested as a single test compound or as a combination against Providencia rettgeri. BAC (benzalconium chloride) is a well-bacteride and was tested at a concentration of 40 and 80 μmol. Compounds 20, 40 and 42 were tested at a concentration of 10, 20, 40, 80 and 160 μmol. When a synergistic effect was observed, the “measured” and “calculated” activity are indicated with a bold typeface.

Compound	E. coli (growth inhibition score) [1]	P. aeruginosa (growth inhibition score) [2]	Measured activity [3] [%]
CN(C)CCC1CCN(CCC(O)(c2ccc(-c3ccccc3)cc2)c2ccc(Cl)cc2Cl)CC1.Cl.Cl (racemic) [Co. No. 34, (±)-α-[(1,1 ′-biphenyl)-4-yl]-a-(2,4-dichlorophenyl)-4-[2-(dimethylamino)ethyl]-1-piperidine-propanol dihydrochloride]	1	1	–
CN(C)CCCN(C)CCC(c1ccccc1)c1ccc(-c2ccccc2)cc1 (racemic) [Co. No. 38, (±)-N-[3-[(1,1′-biphenyl)-4-yl]-3-phenylpropyl]-N,N′,N′-trimethylpropanediamine]	1	1	–
CNCCNCCC(c1ccccc1)c1ccc(-c2ccccc2)cc1.Cl.Cl (racemic) [Co. No. 56, (±)-N-[3-([1,1′-biphenyl]-4-yl)-3-phenylpropyl]-N′-methyl-1,2-ethanediamine dihydrochloride]	3	1	–
NCCCNCCC(c1ccccc1)c1ccc(-c2ccccc2)cc1.NCCCNCCC(c1ccccc1)c1ccc(-c2ccccc2)cc1.O=C(O)C(O)C(O)C(=O)O.O=C(O)C(O)C(O)C(=O)O.O=C(O)C(O)C(O)C(=O)O (single isomer, unassigned) [compound 69]	3	1	–
NCCCN1CCC(C(c2ccccc2)c2ccc(-c3ccccc3)cc2)CC1.NCCCN1CCC(C(c2ccccc2)c2ccc(-c3ccccc3)cc2)CC1.O.O.O=C(O)C(O)C(O)C(=O)O.O=C(O)C(O)C(O)C(=O)O.O=C(O)C(O)C(O)C(=O)O (single isomer, unassigned) [compound 84]	3	3	–
CC(C)O.Cl.Cl.Fc1ccc(C(=C2CCN(C3CCNCC3)CC2)c2ccc(-c3ccccc3)cc2)cc1 [Co. No. 2, 4-[[(1,1′-biphenyl)-4-yl](4-fluorophenyl)methylen](1,4′-bipiperidine)dihydrochloride 2-propanolate (1:1)]	3	1	–
Cl.Cl.NCCCN1CCC(C(c2ccccc2)c2ccc(-c3ccccc3)cc2)CC1.O.O.O.O (stereo not drawn) [Co. No. 78, (A)-4-[([1,1′-biphenyl]-4-yl)phenylmethyl]-1-piperidinepropanamine dihydrochloride tetrahydrate]	3	3	–
Fc1ccc(C(=C2CCN(C3CCNCC3)CC2)c2ccc(-c3ccc(F)cc3)cc2)cc1.O=C(O)/C=C/C(=O)O.O=C(O)/C=C/C(=O)O [compound 1]	3	1	–
Cl.Cl.c1ccc(C(=C2CCN(C3CCNCC3)CC2)c2ccc(-c3ccccc3)cc2)cc1 [compound 3]	1	1	–
Cl.Fc1ccc(-c2ccc(C(=C3CCN(C4CCNCC4)CC3)c3ccccc3)cc2)cc1 [compound 5]	2	1	–
Cl.Cl.Fc1ccc(-c2ccc(C(c3ccc(Cl)cc3)C3CCN(C4CCNCC4)CC3)cc2)cc1 (stereo not drawn) [compound 8]	3	3	–
O=S(=O)(O)c1ccc(-c2ccc(C(c3ccc(S(=O)(=O)O)cc3)C3CCN(C4CCNCC4)CC3)cc2)cc1 (stereo not drawn) [compound 10]	1	1	–
CN(C)CCCN1CCC(N2CCC(C(c3ccccc3)c3ccc(-c4ccccc4)cc3)CC2)CC1.Cl.Cl.Cl (stereo not drawn) [compound 15]	1	1	–
CN1CCC(N2CCC(C(c3ccccc3)c3ccc(-c4ccccc4)cc3)CC2)CC1 (stereo not drawn) [compound 19]	1	1	–
CN(C)CCC1CCN(CC=C(c2ccccc2)c2ccc(-c3ccccc3)cc2)CC1.Cl.Cl [compound 24]	1	1	–
CN(C)CCC1CCN(CCC(c2ccccc2)c2ccc(-c3ccccc3)cc2)CC1.Cl.Cl (stereo not drawn) [compound 28]	1	1	–
CN(C)C1CCN(CCC(c2ccccc2)c2ccc(-c3ccccc3)cc2)CC1 (stereo not drawn) [compound 32]	1	1	–
CN(C)CCCN(C)CC=C(c1ccccc1)c1ccc(-c2ccccc2)cc1 [compound 35]	3	1	–
CN(C)CCCNCC=C(c1ccccc1)c1ccc(-c2ccccc2)cc1 [compound 36]	1	1	–
CN(C)CCNCC=C(c1ccccc1)c1ccc(-c2ccccc2)cc1 [compound 37]	1	1	–
CC(C)O.Cl.Cl.Cl.O.c1ccc(-c2ccc(C(c3ccccc3)C3CCN(C4CCN(C5CCNCC5)CC4)CC3)cc2)cc1 (stereo not drawn) [compound 44]	3	1	–
Cl.c1ccc(-c2ccc(C(c3ccccc3)N3CCC(N4CCCCC4)CC3)cc2)cc1 (stereo not drawn) [compound 45]	1	1	–
CN(C1CCN(C2CCNCC2)CC1)C(c1ccccc1)c1ccc(-c2ccccc2)cc1.O.O (stereo not drawn) [compound 48]	1	1	–
CN(CCCN)CCCNC(c1ccccc1)c1ccc(-c2ccccc2)cc1.O=C(O)C(=O)O.O=C(O)C(=O)O.O=C(O)C(=O)O (stereo not drawn) [compound 53]	3	1	–
CN(C)CCCN(C)CCCN(C)C(c1ccccc1)c1ccc(-c2ccccc2)cc1.Cl.Cl.Cl.O (stereo not drawn) [compound 54]	3	1	–
NCCCNCCC(c1ccccc1)c1ccc(-c2ccccc2)cc1.NS(=O)(=O)O.NS(=O)(=O)O (stereo not drawn) [compound 67]	3	2	–
CN(CCN)CCC(c1ccccc1)c1ccc(-c2ccccc2)cc1.O=c1[nH]sc2ccccc12 (stereo not drawn) [compound 73]	3	3	–
CN(C1CCNCC1)C1CCN(CCC(c2ccccc2)c2ccc(-c3ccccc3)cc2)CC1.Cl.Cl.Cl.O.O.O (stereo not drawn) [compound 89]	3	1	–
benzalconium chloride [BAC, reference compound]	–	–	100

Reference: patent publication US6440440B1, “Biocidal benzylbiphenyl derivatives” (priority 1998, dated 2002)
